Columns and labels:
[1] = system: human sebaceous glands (hSGs); assay: Sebum content in ex-vivo cultured human sebaceous glands (hSGs), lipids normalized to proteins; type: cell-based
Text: The following examples are intended to show the modulation of sebum production exerted by the experimental preparations on human sebaceous glands (hSGs) microdissected and cultivated up to day 6. At the end of the culture time, the sebum is extracted and quantified from each experimental group of hSGs and then normalized by the proteins extracted from the residual hSG material (mg lipids/mg proteins). As a result, the biological activity of the tested compounds is inferred by comparing the lipids/proteins ratio of the treated glands with that of the control group. A detailed methodology is reported in EP14179936.1 (Cutech Srl) The adopted experimental model is based on the cultivation of ex-vivo hSGs at constant concentrations of valerian extracts or purified derivatives. This experimental condition is not reproducible in vivo since both topical and oral administration produce fluctuating concentrations, depending on the frequency and composition of the treatment. […] The control group was cultured in standard medium, whereas a 5 μM Capsaicin treatment was included in the experimental design as positive control. Capsaicin is an active component of chili peppers suitable to inhibit sebogenesis [Tóth et al., 2009, J. Invest. Derm. 129: 329-339]. The effect of the treatment was evaluated by assessing the amounts of normalized lipids obtained from the treated groups, i.e. the quantitive ratio beween sebum lipids and proteins extracted from each group of hSGs (mg of lipids/mg of proteins), with respect to the value obtained from the control group. The results were expressed in percentage values, assuming the normalized lipids obtained from the control group as reference value (100%).

[2] = system: human skin subcutis; assay: Normalized total lipids in subcutis of ex-vivo cultured full-thickness human skin; type: cell-based; conditions: for Total lipid content in skin subcutis samples, % ratio of the control group performance (Average): Table 9, abdominal skin, six days of organ culture (five of treatment)
Text: The reported examples from 19 to 23 are intended to show the modulation of adipocyte lipid content exerted by the experimental preparations on human skin subcutis. Full-thickness ex-vivo human skin samples, including the subcutis, were ex-vivo cultured and treated with compounds obtained from valerian extract, i.e. valerenic acid (VA) and pentanoic acid (AP), in order to evaluate their activity on the lipid metabolism.
The responses of the treated tissues, in comparison to the untreated group, were evaluated after 6 days of culture, by isolating the subcutis of each skin sample and then estimating its normalized content in total lipids.
Cylindrical pieces (7 mm in diameter) of full thickness human skin were excised from an abdominal skin sample paying attention to preserve the subcutis. These organ samples were seeded in 24-well plates at a density of 1 sample/well with 500 μl of culture medium, and cultured up to day 6. The samples submitted to experimental treatments received medium supplemented with VA at 0.5, 5 and 50 μM or PA at 0.2 and 2 μM. After the first day of culture, the samples were arranged in experimental groups including 4 samples each one. The control group received modified William E medium, while the samples submitted to experimental treatments received the same medium supplemented with the extracts. The culture medium was renewed every other day. After six days of organ culture (five of treatment), the subcutis of each skin sample was separated from the dermis and its total content of lipids and proteins was quantified. […] As a result, when lipogenesis is stimulated, an increase in the “total lipids/total proteins ratio”, hereinafter defined “normalized total lipids”, is expected, while the contrary occurs in the case of increased lipolysis.
The analytical protocol adopted to detect values of “normalized total lipids” is described below: • each subcutis sample was homogenized in 1 ml of isopropyl alcohol; • the sample was centrifuged at 14,000 G for 5 minutes and then the supernatant (containing the extracted lipids) was collected; • the supernatant was diluted 10 fold with isopropyl alcohol; • the diluted lipid extract was analysed with a Direct Detect IR Spectrometer (Millipore), which provided the total lipid concentration of the supernatant (mg/ml); • the total lipids of the subcutis sample was quantified multiplying the supernatant lipid concentration (indention 4) by the preliminary dilution factor (indention 3) and then by the volume of isopropyl alcohol used for the lipid extraction (indention 1); • the residual pellet obtained from indention 2 was washed with 1 ml of isopropyl alcohol and, after another centrifugation this solvent was withdrawn; • the pellet was dried in a vacuum dry evaporator and then homogenized in 100 ul of proteolytic buffer (20 mM Tris HCI pH 7.5, 150 mM NaCl, 2 mM EDTA, 0.5% Triton X-100, 2 mM DTT, 1% protease inhibitor cocktail); • the extractive mixture was centrifuged at 14,000 G for 10 minutes and the supernatant was collected and analysed with a Direct Detect IR Spectrometer (Millipore), which provided the total protein concentration of the supernatant (mg/ml); • the obtained total protein concentration was multiplied by the extractive volume (indention 7) in order to quantify the total proteins of the subcutis sample; • the total lipids (indention 5) were divided by the total proteins (indention 9) in order to obtain the amount of lipids per mg of proteins relative to the processed subcutis sample.

[3] = Table 1, scalp sample donor, 6 days culture, 5 μM

COc1cc(CNC(=O)CCCC/C=C/C(C)C)ccc1O [Capsaicin, reference compound]
reduction of sebum content of the hSGs in comparison with the control group ([1]; Examples 1 to 4 donor, positive control 5 μM): 17% | reduction of hSGs sebum content in comparison with the control group ([1]; Examples 5 to 7 donor, positive control 5 μM): 10% | response of sebum production versus control ([1]; Examples 22 to 25, positive control 5 μM): −17% | Sebum content in hSGs, % ratio of the control group performance (Average) [1, 3]: 83.3% | Sebum content in hSGs, % ratio of the control group performance (Average) ([1]; Table 2, another donor, 5 μM): 90.2% | Sebum content in hSGs, % ratio of the control group performance (Average) ([1]; Table 4, another donor, 5 μM): 37.2% | Sebum content in hSGs, % ratio of the control group performance (Average) ([1]; Table 5, 5 μM): 45.6% | Sebum content in hSGs, % ratio of the control group performance (Average) ([1]; Table 6, same donor, 5 μM): 59.2% | Sebum content in hSGs, % ratio of the control group performance (Average) ([1]; Table 7, 5 μM): 83.0% | Total lipid content in skin subcutis samples, % ratio of the control group performance (Average) ([2]; 5 μM): 73.6%

CCCCC(=O)O [PA, pentanoic acid]
Sebum content in hSGs, % ratio of the control group performance (Average) ([1]; Table 5, 0.2 mM): 57.3% | Sebum content in hSGs, % ratio of the control group performance (Average) ([1]; Table 5, 2 mM): 65.6% | Sebum content in hSGs, % ratio of the control group performance (Average) ([1]; Table 6, same donor, 0.02 mM): 62.5% | Sebum content in hSGs, % ratio of the control group performance (Average) ([1]; Table 6, same donor, 0.2 mM): 60.9% | Sebum content in hSGs, % ratio of the control group performance (Average) ([1]; Table 6, same donor, 2.0 mM): 75.4% | Total lipid content in skin subcutis samples, % ratio of the control group performance (Average) ([2]; 0.2 μM): 82.6% | Total lipid content in skin subcutis samples, % ratio of the control group performance (Average) ([2]; 2.0 μM): 91.6% | reduction in total lipid content of skin subcutis ([2]; concentration not given): 17.8%

CC1=C2[C@H](/C=C(\C)C(=O)O)CC[C@@H](C)[C@H]2CC1 [VA, valerenic acid]
reduction of sebum content in the hSGs ([1]; Examples 1 to 4 donor, 0.5 μM): 26% | concentration range producing sebogenesis inhibition (very effective) ([1]; Examples 5 to 7 donor): 0.05 to 5 µM | reduction of sebogenesis (change versus control) ([1]; Examples 26 to 27, 0.5 μM): −29% | Sebum content in hSGs, % ratio of the control group performance (Average) ([1]; Table 1, scalp sample donor, 6 days culture, 0.05 μM): 98.9% | Sebum content in hSGs, % ratio of the control group performance (Average) ([1]; Table 1, scalp sample donor, 6 days culture, 0.5 μM): 74.2% | Sebum content in hSGs, % ratio of the control group performance (Average) [1, 3]: 88.0% | Sebum content in hSGs, % ratio of the control group performance (Average) ([1]; Table 1, scalp sample donor, 6 days culture, 50 μM): 88.6% | Sebum content in hSGs, % ratio of the control group performance (Average) ([1]; Table 2, another donor, 0.05 μM): 85.6% | Sebum content in hSGs, % ratio of the control group performance (Average) ([1]; Table 2, another donor, 0.5 μM): 61.2% | Sebum content in hSGs, % ratio of the control group performance (Average) ([1]; Table 2, another donor, 5 μM): 88.5% | Sebum content in hSGs, % ratio of the control group performance (Average) ([1]; Table 3, another donor, 0.05 μM): 75.0% | Sebum content in hSGs, % ratio of the control group performance (Average) ([1]; Table 3, another donor, 0.5 μM): 89.0% | Sebum content in hSGs, % ratio of the control group performance (Average) ([1]; Table 4, another donor, 0.05 μM): 54.1% | Sebum content in hSGs, % ratio of the control group performance (Average) ([1]; Table 4, another donor, 0.5 μM): 63.9% | Sebum content in hSGs, % ratio of the control group performance (Average) ([1]; Table 6, same donor, 0.05 μM): 41.4% | Sebum content in hSGs, % ratio of the control group performance (Average) ([1]; Table 6, same donor, 0.5 μM): 50.4% | Sebum content in hSGs, % ratio of the control group performance (Average) ([1]; Table 6, same donor, 5 μM): 70.7% | Sebum content in hSGs, % ratio of the control group performance (Average) ([1]; Table 8, 0.5 μM): 71.4% | response of lipid content in the skin subcutis versus control ([2]; 5.0 μM): −44.7% | Total lipid content in skin subcutis samples, % ratio of the control group performance (Average) ([2]; 0.5 μM): 63.9% | Total lipid content in skin subcutis samples, % ratio of the control group performance (Average) ([2]; 5 μM): 55.3% | Total lipid content in skin subcutis samples, % ratio of the control group performance (Average) ([2]; 50.0 μM): 59.0%
